Measured values reported in patent US12098184B2, “G protein-coupled receptor (GPCR) ligand assay” (REGENTS OF THE UNIVERSITY OF MINNESOTA, priority 2017, dated 2024).
Bridge positions count the residues as written; N and C are the ends. Ends that are not written are not given here.

Columns and labels:
[1] = system: V1R-Qpep sensor; test: FRET measurement with GPMV-V1R-Qpep sensors; assay type: biochemical; details: bicine-mediated GPMVs, 100 nM
[2] = system: α1AR-Ipep sensor; details: bicine-mediated GPMVs, 100 μM

| Compound | ΔFRET level with full agonist [1] | ΔFRET level with full agonist [2] |
| --- | --- | --- |
| [Arg^8]vasopressin (CYFQNCPRG-NH2; disulfide 1-6) [[Arg^8]vasopressin (AVP), full agonist of V1R] | comparable to those obtained in the other experiments described herein | – |
| CNC[C@H](O)c1ccc(O)c(O)c1 [epinephrine] | – | comparable to those obtained in the other experiments described herein |
